Results from patent US20090283050A1, “FEED COMPOSITION AND METHOD FOR BREEDING ANIMALS” (KENKO CORPORATION, priority 2005, published 2009).

Test system: Salmonella
Assay: Antimicrobial effect (MIC, MBC) on Salmonella
Type: cell-based
Details: compared with the other antimicrobial agents tested
Procedure: The antimicrobial effects of these samples were evaluated by the determination of Minimum Inhibitory Concentration (MIC) and Minimum Bactericidal Concentration (MBC).
In this connection, bacterial strains used herein were those obtained from enteric canal of broiler chicken.

## CC1(C)S[C@@H]2[C@H](NC(=O)[C@H](N)c3ccccc3)C(=O)N2[C@H]1C(=O)O [Ampicillin]
  antibacterial effect against Salmonella, in words: quite weak antibacterial effect
